Measurements published in patent US20120316211A1, “Diagnostic Methods for Assessing Risk of Chagas Disease and Heart Failure” (The Board or Regents of the University of Texas System, priority 2011, published 2012).

What was measured:
[1] = 2D-GE plasma proteome profile of T. cruzi infected rats treated with PBN and/or BZ; format: in vivo, Sprague Dawley rats; conditions: chronically infected rats (RCP, RCB, RCPB), depleted plasma
Method: (§1) Animals and parasites. Sprague Dawley rats (4-5-weeks-old, Harlan Labs) were infected with T. cruzi (SylvioX10/4, 50,000 trypomastigotes/rat, intraperitoneal). Rats were given 1.3 mM PBN (beginning day 0, throughout the course of infection) and/or 0.7 mM BZ (beginning day 40 pi, for three weeks) in drinking water. The plasma samples were obtained at acute ([…] days post-infection (dpi)) and chronic (>150 dpi) stages of infection and disease development.
(§2) Rat plasma collection and removal of high-abundance proteins. Whole blood was collected in K3EDTA vacutainers and kept on ice for 30 min. The samples were centrifuged for 15 min at 3,000 g, and the lipid-containing upper layer was removed. The abundant proteins (e.g., albumin, α1-acid glycoprotein, α1-antitrypsin, α2-5 macroglobulin, apolipoproteins (ApoA-I, ApoA-II), fibrinogen, haptoglobin, immunoglobulins (IgA, IgG, and IgM), and transferrin) in plasma were removed using ProteomeLab IgY-12 LC 10 affinity spin columns (Beckman Coulter). The plasma samples depleted of abundant proteins were then concentrated by using Amicon® ultra centrifugal filters (3 kDa cut-off, from Millipore) and desalted by PD-10 desalting columns (GE Healthcare). Protein content was determined by using the Bradford assay (Bio-Rad).
(§3) Two-dimensional gel electrophoresis. The 11-cm immobilized pH gradient (IPG) strips (pH: 3-10 or 5-8, Bio-Rad) were rehydrated at 50 V for 12 h with 250-μl rehydration buffer (1 M thiourea, 8 M urea, 2% CHAPS, 1% dithiothreitol, and 0.2% ampholytes) containing 200-μg protein samples and 0.002% of bromophenol blue. Isoelectric focusing was performed at 500 V for 1 h, 1000 V for 1 h, 8000 V for 2 h, and then at 8000 V for a total of 50,000 Vh. The IPG strips were suspended in equilibration buffer (50 mM Tris-HCI, pH 6.8, 6 M urea, 20% glycerol) and sequentially incubated for 15 min each in presence of 2% DTT/2% SDS (reducing conditions) and 2.5% iodoacetamide/2% SDS (alkylating conditions). Equilibrated IPG strips were subjected to second-dimension electrophoresis by using 8-10% linear gradient precast Tris-HCI gels (BioRad) on a PROTEAN plus Dodeca Cell System at 75 V for 1 h and then at 120 V until the dye front reached the bottom of the gel. Gels were fixed in 10% methanol/7% acetic acid, stained with SYPRO Ruby (BioRad), destained in 10% ethanol/7% acetic acid, and imaged by using a high-resolution ProXPRESS Proteomic Imaging System (Perkin Elmer).
(§4) Image analysis. In total, 28 SYPRO Ruby-stained 2D gels (n=4/group) were digitalized on a ProXPRESS Proteomic Imaging System (Perkin Elmer), and the images were analyzed on Progenesis SameSpots™ software 2.0 (NonLinear Dynamics). Normalized spot volumes, i.e., the volume of each spot over the volume of all spots in the gel, were used for comparison of the different groups, and candidates were identified as protein spots that changed at least 2-fold versus their specific control. Statistical significance was assessed by a two-tailed Student's t-test and analysis of variance test (ANOVA), and p values of <0.05 were considered significant for comparison between control and experimental data.
(§5) Sprague Dawley rats were infected with T. cruzi and treated with phenyl-α-tert-butyl nitrone (PBN, antioxidant) with or without benznidazole (BZ, anti-parasite drug). Plasma samples were collected at day 25 (acute stage) and 150 (chronic stage) post-infection, and depleted of high-abundance proteins to enrich detection of low-abundance proteins by 2D-gel electrophoresis. Gel images of plasma samples from normal rats (RN), rats that were acutely infected (RA) and treated with PBN (RAP), and chronically infected rats (RC) that were treated with PBN (RCP), BZ (RCB), or PBN and BZ (RCPB) were analyzed on Progenesis SameSpotst™ software and normalized spot volumes were used for comparison of different groups.

T. cruzi [2] = assay: as above; format: in vivo, Sprague Dawley rats
Method: as §1, §2, §3, §4, §5

T. cruzi [3] = assay: Detection of carbonyl proteins (DNPH, anti-DNP Western blotting) in plasma of T. cruzi infected rats; format: in vivo, Sprague Dawley rats
Method: as §1
Detection of carbonyl proteins. IPG strips were loaded with protein samples and subjected to 1st-dimension isoelectric focusing, as above. IPG strips were then incubated with 1 ml of 3% SDS and 5 mM 2,4-dinitrophenylhydrazine (DNPH)/10% trifluoroacetic acid for 25 min. […] Membranes were hybridized with rabbit anti-DNP antibody (1:300 dilution, Invitrogen) and HRP-conjugated goat anti-rabbit secondary antibody (1:4000 dilution, Sigma), and signal detected by using an Amersham™ ECL Plus system, according to the manufacturer's protocol (Levine et al., (1990) Methods Enzymol, 186, 464-78; Wen and Garg, (2004) Free Radic Biol Med, 37, 2072-81). Images were visualized, digitized, and signal was quantified by densitometry by using a FluorChem 8800 image analyzer (Alpha Innotech). […]

Trypanosoma cruzi = conditions: cited from earlier work
[4] = chronically infected rats (RCP, RCB, RCPB), depleted plasma

SMILES: O=C(Cn1ccnc1[N+](=O)[O-])NCc1ccccc1 [BZ, Benznidazole]
- Average Normalized Density × 100,000, spot 106 CDK5RAP2 [1]: 2.21
- number of proteins stimulated in a treatment-specific manner (T. cruzi [2]; chronic chagasic plasma): 2
- number of proteins with altered expression (T. cruzi [2]; chronic chagasic plasma, 22 of the 61 shared with BZ-treated rats): 22
- decline in the plasma proteome profile (T. cruzi [2]; chronically infected rats): 30.1%
- Average Normalized Density × 100,000, spot 12, 180 KRT1 (T. cruzi [2]; [4]): 9.47
- Average Normalized Density × 100,000, spot 34 TTC37 (T. cruzi [2]; [4]): 0.37
- Average Normalized Density × 100,000, spot 37, 593 SRPRB (T. cruzi [2]; [4]): 3.21
- Average Normalized Density × 100,000, spot 49, 673 IGH-1 (T. cruzi [2]; [4]): 3.98
- Average Normalized Density × 100,000, spot 52, 54, 302 TF (T. cruzi [2]; [4]): 0.60
- Average Normalized Density × 100,000, spot 53, 225 SroTP (T. cruzi [2]; [4]): 1.72
- Average Normalized Density × 100,000, spot 72 IDH3A (T. cruzi [2]; [4]): 83.09
- Average Normalized Density × 100,000, spot 73, 705, 787 ALB (T. cruzi [2]; [4]): 216.9
- Average Normalized Density × 100,000, spot 77 MUG1 (T. cruzi [2]; [4]): 107.7
- Average Normalized Density × 100,000, spot 88 IGHG- (T. cruzi [2]; [4]): 4.75
- Average Normalized Density × 100,000, spot 94 FGB (T. cruzi [2]; [4]): 0.55
- Average Normalized Density × 100,000, spot 115, 123 SERPINAL1 (T. cruzi [2]; [4]): 8.36
- Average Normalized Density × 100,000, spot 149 PUS1 (T. cruzi [2]; [4]): 1.16
- Average Normalized Density × 100,000, spot 153 MYL2 (T. cruzi [2]; [4]): 2.37
- Average Normalized Density × 100,000, spot 177 AIM (T. cruzi [2]; [4]): 2.77
- Average Normalized Density × 100,000, spot 181 SERPINA3L (T. cruzi [2]; [4]): 7.53
- Average Normalized Density × 100,000, spot 184, 257, 328 CFH (T. cruzi [2]; [4]): 6.15
- Average Normalized Density × 100,000, spot 207, 555 CCHL1A1 (T. cruzi [2]; [4]): 11.32
- Average Normalized Density × 100,000, spot 215 GPT (T. cruzi [2]; [4]): 3.23
- Average Normalized Density × 100,000, spot 266 CEP350 (T. cruzi [2]; [4]): 1.43
- Average Normalized Density × 100,000, spot 299 UMPS (T. cruzi [2]; [4]): 1.17
- Average Normalized Density × 100,000, spot 315 ITIH4 (T. cruzi [2]; [4]): 5.19
- Average Normalized Density × 100,000, spot 334 ZNF689 (T. cruzi [2]; [4]): 1.05
- Average Normalized Density × 100,000, spot 341 Nmag 2782 (T. cruzi [2]; [4]): 1.44
- Average Normalized Density × 100,000, spot 355, 359 PLG (T. cruzi [2]; [4]): 3.29
- Average Normalized Density × 100,000, spot 382, 385, 378, 572, 578, 595 CFB (T. cruzi [2]; [4]): 23.45
- Average Normalized Density × 100,000, spot 389 GSN (T. cruzi [2]; [4]): 44.17
- Average Normalized Density × 100,000, spot 430 SCD2 (T. cruzi [2]; [4]): 13.65
- Average Normalized Density × 100,000, spot 434, 678 COG1 (T. cruzi [2]; [4]): 43.20
- Average Normalized Density × 100,000, spot 439 C4BPA (T. cruzi [2]; [4]): 1.36
- Average Normalized Density × 100,000, spot 452 AFM (T. cruzi [2]; [4]): 59.65
- Average Normalized Density × 100,000, spot 464 IGH-6 (T. cruzi [2]; [4]): 4.66
- Average Normalized Density × 100,000, spot 479 IGHM (T. cruzi [2]; [4]): 8.65
- Average Normalized Density × 100,000, spot 493 ZFP637 (T. cruzi [2]; [4]): 17.41
- Average Normalized Density × 100,000, spot 515 CESIC/ES2 (T. cruzi [2]; [4]): 24.22
- Average Normalized Density × 100,000, spot 524 ERCC4 (T. cruzi [2]; [4]): 68.54
- Average Normalized Density × 100,000, spot 551, 587, 908 C3 (T. cruzi [2]; [4]): 32.88
- Average Normalized Density × 100,000, spot 559 HPX (T. cruzi [2]; [4]): 17.91
- Average Normalized Density × 100,000, spot 571 GC (T. cruzi [2]; [4]): 3.75
- Average Normalized Density × 100,000, spot 576, 620 Act-248 (T. cruzi [2]; [4]): 2.38
- Average Normalized Density × 100,000, spot 586, 614 SERPINC1 (T. cruzi [2]; [4]): 132.20
- Average Normalized Density × 100,000, spot 592 DNASE1L1 (T. cruzi [2]; [4]): 11.70
- Average Normalized Density × 100,000, spot 604 APOH (T. cruzi [2]; [4]): 67.12
- Average Normalized Density × 100,000, spot 606 GC (T. cruzi [2]; [4]): 11.27
- Average Normalized Density × 100,000, spot 627 MAPI (T. cruzi [2]; [4]): 44.92
- Average Normalized Density × 100,000, spot 638 LOC501738 (T. cruzi [2]; [4]): 4.69
- Average Normalized Density × 100,000, spot 649 SYNE2 (T. cruzi [2]; [4]): 26.48
- Average Normalized Density × 100,000, spot 651 DSTN (T. cruzi [2]; [4]): 37.12
- Average Normalized Density × 100,000, spot 655 DLGAP2 (T. cruzi [2]; [4]): 151.30
- Average Normalized Density × 100,000, spot 672 SERPINF (T. cruzi [2]; [4]): 23.29
- Average Normalized Density × 100,000, spot 676 rCG33447 (T. cruzi [2]; [4]): 24.67
- Average Normalized Density × 100,000, spot 691 APOA4 (T. cruzi [2]; [4]): 65.41
- Average Normalized Density × 100,000, spot 715 SERPINA1 (T. cruzi [2]; [4]): 30.96
- Average Normalized Density × 100,000, spot 724 ALB (T. cruzi [2]; [4]): 2.19
- Average Normalized Density × 100,000, spot 728 SYMPK (T. cruzi [2]; [4]): 2.21
- Average Normalized Density × 100,000, spot 733 DECR2 (T. cruzi [2]; [4]): 1.67
- Average Normalized Density × 100,000, spot 740 PRPH (T. cruzi [2]; [4]): 4.02
- Average Normalized Density × 100,000, spot 745 PFKFB1 (T. cruzi [2]; [4]): 2.30
- Average Normalized Density × 100,000, spot 749 MY05B (T. cruzi [2]; [4]): 2.46
- Average Normalized Density × 100,000, spot 766 SCG2 (T. cruzi [2]; [4]): 3.79
- Average Normalized Density × 100,000, spot 779, 909 VIM (T. cruzi [2]; [4]): 3.08
- Average Normalized Density × 100,000, spot 796 Hypothetical p (T. cruzi [2]; [4]): 5.11
- Average Normalized Density × 100,000, spot 814 RBM15B (T. cruzi [2]; [4]): 3.61
- Average Normalized Density × 100,000, spot 817 BRPF1 (T. cruzi [2]; [4]): 25.15
- Average Normalized Density × 100,000, spot 820, 1081 BFAR (T. cruzi [2]; [4]): 13.38
- Average Normalized Density × 100,000, spot 827 GNAT (T. cruzi [2]; [4]): 10.78
- Average Normalized Density × 100,000, spot 832 PSMB (T. cruzi [2]; [4]): 3.47
- Average Normalized Density × 100,000, spot 860 KRT10 (T. cruzi [2]; [4]): 2.64
- Average Normalized Density × 100,000, spot 867 RAI14 (T. cruzi [2]; [4]): 2.41
- Average Normalized Density × 100,000, spot 881 CHD4 (T. cruzi [2]; [4]): 28.89
- Average Normalized Density × 100,000, spot 897 MY05A (T. cruzi [2]; [4]): 11.65
- Average Normalized Density × 100,000, spot 900 rCG25416 (T. cruzi [2]; [4]): 7.06
- Average Normalized Density × 100,000, spot 906 APOE (T. cruzi [2]; [4]): 74.42
- Average Normalized Density × 100,000, spot 966 CMRF-35-like molecule-7 (T. cruzi [2]; [4]): 49.99
- Average Normalized Density × 100,000, spot 979 rCG25357 (T. cruzi [2]; [4]): 31.72
- Average Normalized Density × 100,000, spot 992 APOA1 (T. cruzi [2]; [4]): 38.11
- protein spots observed (2D-GE) (T. cruzi [2]; [4]): 2486
- differentially expressed proteins identified in chagasic plasma of treated rats (T. cruzi [2]; share of differentially expressed protein spots, FIG. 7B): 17%
- protein carbonylation (T. cruzi [3]; chronic chagasic plasma): not effective in preventing protein carbonylation
- carbonylated protein spots (T. cruzi [3]; chronically infected rats (RCP, RCB, RCPB), plasma): 31
- controlling parasitemia (Trypanosoma cruzi; acutely infected individuals): effective
- efficacy in arresting or reversing disease progression (Trypanosoma cruzi; chronically infected patients): not clearly established
